This data set concerns rodent carcinogenicity bioassays, tumor incidence. The data set is described as follows: CCRIS carcinogenicity studies. A digest of the protocol:
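Archive of carcinogenicity, mutagenicity, tumor promotion and tumor inhibition results drawn from journals, NCI reports and other sources, expert-reviewed; covers 1985-2011 and is no longer updated.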

Calls of active or inactive are those of the source. The rule behind the calls is not given here.

Consider `Cc1cc2c(c3ccc4ccccc4c13)CCC2=O`, for which, under “Species: MOUSE, Strain/Sex: TO/MALE, FEMALE, Route: DERMAL, Dose: 0, 50 UG (10 µL OF A 0.5% W/V TOLUENE SOLUTION) 2/WK FOR 70 WK (STUDY DURATION: 70 WK), Tumor Site: Type of Lesion: SKIN: CARCINOMA”, the carcinogen call is “active; positive”.

For `O=C(O)C[C@@H]1NC(=O)[C@H](Cc2ccccc2)NC1=O`, the carcinogen call runs as follows: (Species: MOUSE, Strain/Sex: SWISS/FEMALE, Route: INTRAVESICULAR, Dose: 0, 4-4.4 MG IN CHOLESTEROL PELLET (STUDY DURATION: 26 WK)) “inactive; negative”; (Species: MOUSE, Strain/Sex: SWISS/FEMALE, Route: INTRAVESICULAR, Dose: 0, 4-4.4 MG IN CHOLESTEROL PELLET (STUDY DURATION: 56 WK)) “inactive; negative”.

For the compound `C=CN1CCCC1=O`, the carcinogen call is “active; positive” (Species: RAT, Strain/Sex: SPRAGUE-DAWLEY/ MALE, Route: INHALATION, Dose: 0, 5, 10, 20 PPM 6 HR/D 5D/WK FOR 24 MO (STUDY DURATION: 24 MO), Dose: 0, 5, 10, 20 PPM 6 HR/D 5D/WK FOR 24 MO (STUDY DURATION: 24 MO), Tumor Site: Type of Lesion: LARYNX: SQUAMOUS CELL CARCINOMA, LIVER: HEPATOCELLULAR CARCINOMA, NASAL CAVITY: ADENOCARCINOMA, ADENOMA, Tumor Site: Type of Lesion: LARYNX: SQUAMOUS CELL CARCINOMA, LIVER: HEPATOCELLULAR CARCINOMA, NASAL CAVITY: ADENOCARCINOMA, ADENOMA) and “active; positive” (Species: RAT, Strain/Sex: SPRAGUE-DAWLEY/FEMALE, Route: INHALATION, Dose: 0, 5, 10, 20 PPM 6 HR/D 5 D/WK FOR 24 MO (STUDY DURATION: 24 MO), Dose: 0, 5, 10, 20 PPM 6 HR/D 5 D/WK FOR 24 MO (STUDY DURATION: 24 MO), Tumor Site: Type of Lesion: LARYNX: SQUAMOUS CELL CARCINOMA, LIVER: HEPATOCELLULAR CARCINOMA, NASAL CAVITY: ADENOCARCINOMA, ADENOMA, Tumor Site: Type of Lesion: LARYNX: SQUAMOUS CELL CARCINOMA, LIVER: HEPATOCELLULAR CARCINOMA, NASAL CAVITY: ADENOCARCINOMA, ADENOMA).

As for `COP(=O)(NC(C)=O)SC` (stereo not drawn), the carcinogen call (Species: Mouse, Strain/Sex: CD-1/Female, Route: Oral, Dose: 0, 50, 250, 1000 ppm (0; 8; 42; 167 mg/kg/d) in feed for 104 wk, Dose: 0, 50, 250, 1000 ppm (0; 8; 42; 167 mg/kg/d) in feed for 104 wk, Tumor Site: Type of Lesion: Liver: Hepatocellular carcinoma and adenoma (highest dose only)) was “inactive; negative; purity = 92.7, 92.1%”; the carcinogen call (Species: Mouse, Strain/Sex: CD-1/Male, Route: Oral, Dose: 0, 50, 250, 1000 ppm (0; 7; 36; 146 mg/kg/d) in feed for 104 wk, Dose: 0, 50, 250, 1000 ppm (0; 7; 36; 146 mg/kg/d) in feed for 104 wk) is “inactive; negative; purity = 92.7, 92.1%”.

Take `CC(=O)N(C)C`: the carcinogen call is “inactive; negative” (Species: MOUSE, Strain/Sex: CRL:CD-1 (ICR)BR/FEMALE, Route: INHALATION, Dose: 0, 25, 100, 350 PPM 6 HR/D 5 D/WK FOR 18 MO (STUDY DURATION: 18 MO), Dose: 0, 25, 100, 350 PPM 6 HR/D 5 D/WK FOR 18 MO (STUDY DURATION: 18 MO)); “inactive; negative” (Species: MOUSE, Strain/Sex: CRL:CD-1 (ICR)BR/MALE, Route: INHALATION, Dose: 0, 25, 100, 350 PPM 6 HR/D 5 D/WK FOR 18 MO (STUDY DURATION: 18 MO), Dose: 0, 25, 100, 350 PPM 6 HR/D 5 D/WK FOR 18 MO (STUDY DURATION: 18 MO)); “inactive; negative” (Species: RAT, Strain/Sex: CRL:CD BR/FEMALE, Route: INHALATION, Dose: 0, 25, 100, 350 PPM 6 HR/D 5 D/WK FOR 2 YR (STUDY DURATION: 2 YR), Dose: 0, 25, 100, 350 PPM 6 HR/D 5 D/WK FOR 2 YR (STUDY DURATION: 2 YR)); “inactive; negative” (Species: RAT, Strain/Sex: CRL:CD BR/MALE, Route: INHALATION, Dose: 0, 25, 100, 350 PPM 6 HR/D 5 D/WK FOR 2 YR (STUDY DURATION: 2 YR), Dose: 0, 25, 100, 350 PPM 6 HR/D 5 D/WK FOR 2 YR (STUDY DURATION: 2 YR)).

On to `COS(C)(=O)=O`, for which the carcinogen call runs as follows: (Species: MOUSE, Route: INTRAPERITONEAL, Tumor Site: Type of Lesion: LUNG) “active; positive”; (Species: MOUSE, Route: ORAL, Tumor Site: Type of Lesion: LUNG, THYMUS GLAND) “active; positive”; (Species: RAT, Strain/Sex: SPRAGUE-DAWLEY/MALE, Route: INHALATION, Dose: 0, 50 PPM 6 HR/D 5 D/WK FOR 30 D (STUDY DURATION: LIFETIME), Tumor Site: Type of Lesion: NASAL CAVITY: TUMORS) “active; positive”.

`C=C(C)[C@H]1CC=C(C)C(=O)C1`: the carcinogen call reads like this: (Species: MOUSE, Strain/Sex: B6C3F1/FEMALE, Route: GAVAGE, Dose: 0, 375, 750 MG/KG IN CORN OIL 5 D/WK FOR 103 WK (STUDY DURATION: 104 WK), Dose: 0, 375, 750 MG/KG IN CORN OIL 5 D/WK FOR 103 WK (STUDY DURATION: 104 WK)) “inactive; negative”; (Species: MOUSE, Strain/Sex: B6C3F1/MALE, Route: GAVAGE, Dose: 0, 375, 750 MG/KG IN CORN OIL 5 D/WK FOR 103 WK (STUDY DURATION: 104 WK), Dose: 0, 375, 750 MG/KG IN CORN OIL 5 D/WK FOR 103 WK (STUDY DURATION: 104 WK), Tumor Site: Type of Lesion: KIDNEY: TUBULAR CELL ADENOCARCINOMA) “inactive; negative”.

In the case of `C[C@]12CC[C@@H]3c4ccc(O)cc4CC[C@H]3[C@@H]1CC[C@H]2O`, the carcinogen call (Species: HAMSTER, Strain/Sex: SYRIAN/MALE, Route: SUBCUTANEOUS IMPLANT, Dose: 0, 20 MG IN PELLETS IMPLANTED EVERY 2.5 MO FOR 9 MO (STUDY DURATION: 9 MO)) is “inactive; negative”.

On to `C[N+]1(C)CCCCC1`, for which the carcinogen call by setting is: (Species: Rat, Strain/Sex: Wistar/Female (50/Group), Route: Oral, Dose: 0, 17, 141, 370 mg/kg/day of 57.9% mepiquat chloride in diet for 24 mo, study duration 24 mo, Dose: 0, 17, 141, 370 mg/kg/day of 57.9% mepiquat chloride in diet for 24 mo, study duration 24 mo) “inactive; negative”; (Species: Rat, Strain/Sex: Wistar/Male (50/Group), Route: Oral, Dose: 0, 13, 105, 269 mg/kg/day of 57.9% mepiquat chloride in diet for 24 mo, study duration 24 mo, Dose: 0, 13, 105, 269 mg/kg/day of 57.9% mepiquat chloride in diet for 24 mo, study duration 24 mo) “inactive; negative”.

For the compound `Cc1cc2ccccc2c2ccc3c(c12)[C@H]1O[C@H]1[C@@H](O)[C@H]3O`, the carcinogen call is “active; positive” (Species: MOUSE, Strain/Sex: ICR/FEMALE, Route: INTRAPERITONEAL, Dose: 8 NMOL/5 µL DMSO ON DAY 1, 16 NMOL/10 µL ON DAY 8, AND 32 NMOL/20 µL ON DAY 15 OF AGE (STUDY DURATION: 35 WK), Tumor Site: Type of Lesion: LUNG: TUMORS) and “active; positive” (Species: MOUSE, Strain/Sex: ICR/MALE, Route: INTRAPERITONEAL, Dose: 8 NMOL/5 µL DMSO ON DAY 1, 16 NMOL/10 µL ON DAY 8, AND 32 NMOL/20 µL ON DAY 15 OF AGE (STUDY DURATION: 35 WK), Tumor Site: Type of Lesion: LIVER: TUMORS).

On to `ClC(Cl)=C(c1ccc(Cl)cc1)c1ccc(Cl)cc1`, for which the carcinogen call by setting is: (Species: MOUSE, Strain/Sex: B6C3F1/FEMALE, Route: ORAL, Dose: 0, 148, 261 PPM IN DIET, TWA, Dose: 0, 148, 261 PPM IN DIET, TWA, Tumor Site: Type of Lesion: LIVER: HEPATOCELLULAR CARCINOMA) “active; positive”; (Species: MOUSE, Strain/Sex: B6C3F1/MALE, Route: ORAL, Dose: 0, 148, 261 PPM IN DIET, TWA, Dose: 0, 148, 261 PPM IN DIET, TWA, Tumor Site: Type of Lesion: LIVER: HEPATOCELLULAR CARCINOMA) “active; positive”; (Species: MOUSE, Strain/Sex: CF-1/MALE,FEMALE, Route: ORAL, Dose: 250 PPM IN DIET, Tumor Site: Type of Lesion: LIVER: HEPATOMA) “active; positive”; (Species: RAT, Strain/Sex: OSBORNE-MENDEL/FEMALE, Route: ORAL, Dose: 0, 242, 462 PPM IN DIET, TWA, Dose: 0, 242, 462 PPM IN DIET, TWA) “inactive; negative”; (Species: RAT, Strain/Sex: OSBORNE-MENDEL/MALE, Route: ORAL, Dose: 0, 437, 839 PPM IN DIET, TWA, Dose: 0, 437, 839 PPM IN DIET, TWA) “inactive; negative”.

As for `O=S(=O)(O)OCc1c2ccccc2c2ccc3cccc4ccc1c2c43`, the carcinogen call (Species: MOUSE, Strain/Sex: B6C3F1/MALE, Route: INTRAPERITONEAL, Dose: 0, 0.0025 UMOL/G ONCE AT 12 DAYS OF AGE (STUDY DURATION: 10 MO), Tumor Site: Type of Lesion: LIVER: HEPATOMA) was “active; positive” and the carcinogen call (Species: RAT, Strain/Sex: SPRAGUE-DAWLEY/FEMALE, Route: SUBCUTANEOUS, Dose: 0, 0.2 UMOL 3/WK FOR 20 DOSES (STUDY DURATION: 52 WK), Tumor Site: Type of Lesion: INJECTION SITE: SARCOMA) is “active; positive”.
